Columns and labels:
[1] = system: barley seedlings (first leaf); assay: Maximal daily leaf elongation rate (LERmax) of the first leaf of barley seedlings, with GA3; assay type: in vivo
Excerpt: The methods have been previously described (Chandler and Robertson, 1999). Curves were fitted to data points using a 4-parameter Hill equation.
The maximal daily rate of elongation (LERmax) achieved by the first leaf under standard conditions was a robust measure of GA responsiveness (Chandler and Robertson, 1999) and was therefore determined for all of the barley overgrowth lines and their parents (Table 5). […] Three overgrowth alleles (sln1m, sln1n and sln1s) were compared in both their original dwarfing genetic background as well as after back-crossing to the tall WT background. […] In a wild-type background, the overgrowth alleles tended to enhance growth rates.

[2] = system: barley endosperm half-grains; assay: α-Amylase production by endosperm half-grains incubated with GA3 (Ceralpha procedure); conditions: for α-Amylase at 42 h / α-Amylase at 72 h: GA3 (1 μM), 22° C.
Method: Endosperm half-grains were prepared and incubated with or without GA3 (1 μM) at 22° C. for 0, 42 or 72 h. To each sample, 1.5 mL of a solution of 10 mm CaCl2 was added, the half-grains were homogenised, and an aliquot of 1 mL was clarified by centrifugation (20,000 g for 5 min). The supernatant was analyzed for α-amylase activity using the Megazyme alpha-amylase (Ceralpha) procedure.
The production of α-amylase by endosperm half-grains of wild-type barley is dependent on the presence of an active GA. Therefore, monitoring α-amylase activity in the absence of an active GA provided a convenient measure of the extent of ‘basal’ GA signaling in the mutants. […] Among the overgrowth derivatives of Sln1d, the Sln1d.9 derivative was exceptional, accumulating very high levels of α-amylase at both 42 h and 72 h incubation, despite this line showing only a modest restoration of growth rate (Table 5).

`C=C1C[C@]23C[C@@]1(O)CC[C@H]2[C@@]12C=C[C@H](O)[C@@](C)(C(=O)O1)[C@H]2[C@@H]3C(=O)O` [GA3] showed an LERmax ([1]; line Him (Himalaya), genotype WT) of 52.3 ± 0.1 mm · d^−1, an LERmax ([1]; line M463, genotype grd2b) of 49.8 ± 0.8 mm · d^−1 and an LERmax ([1]; line M640, genotype Sln1d) of 12.1 ± 0.3 mm · d^−1. The LERmax ([1]; line M693, genotype gse1n) was 35.3 ± 1.2 mm · d^−1, the “increase in α-amylase activity over basal levels” value ([2]; 72 h incubation with GA3, control lines WT, grd2b) was about 15 fold and the “α-Amylase at 42 h” value ([2]; line Him, genotype WT) was 9.81 ± 0.86 Ceralpha units/grain. For the same compound, the “α-Amylase at 42 h” value ([2]; line M463, genotype grd2b) was 7.20 ± 0.73 Ceralpha units/grain, the “α-Amylase at 72 h” value ([2]; line Him, genotype WT) was 23.1 ± 2.8 Ceralpha units/grain and the “α-Amylase at 72 h” value ([2]; line M463, genotype grd2b) was 18.9 ± 1.4 Ceralpha units/grain.

Source: US11576326B2, “Wheat with new alleles of Rht-B1” (Commonwealth Scientific and Industrial Research Organisation, priority 2012, dated 2023)
